Three substances from article PMC2189693 (The Journal of Experimental Medicine, 1988) can be followed below.

This assay deals with anti-al mAb, 3-2F1. The format is binding, mouse. The following applies: for Inhibition of binding of rabbit a1 Ig to anti-a1 antibody (in words): RIA with mAb 3-2F1, 24 h preincubation of inhibitor, result in words.

As to “MQIFVKTLTGKDPGG [UB1, reference compound]”, the “Inhibition of binding of rabbit a1 Ig to anti-a1 antibody (in words)” value is recorded as “Neither the substituted peptide, SMA1, nor the control peptide, UB1, inhibited binding”. As for IGYIYPNIDDSAY_SQ [SMA1], the “Inhibition of binding of rabbit a1 Ig to anti-a1 antibody (in words)” value is listed as “Neither the substituted peptide, SMA1, nor the control peptide, UB1, inhibited binding”. On to IT_SPTTEDTAT_YFCA [RA1], for which the “expression of an a1 epitope (in words)” value (conclusion from peptide inhibition of al Ig binding to anti-al) is listed as “each appear to define an al epitope”.
